Experimental data reported in ChEMBL document CHEMBL4020788, “Synthesis, SAR and molecular docking studies of benzo[d]thiazole-hydrazones as potential antibacterial and antifungal agents” (2017).
The source made the active and inactive calls. The calls are words filed in the database; no cut-off is given here.

Columns and labels:
Format in all cases: functional
[1] = tested on: Staphylococcus aureus; assay: Antibacterial activity against Staphylococcus aureus at 25 ug/ml after 24 hrs by agar well diffusion method
[2] = tested on: Staphylococcus aureus; assay: Antibacterial activity against Staphylococcus aureus at 50 ug/ml after 24 hrs by agar well diffusion method
[3] = tested on: Staphylococcus aureus; assay: Antibacterial activity against Staphylococcus aureus at 75 ug/ml after 24 hrs by agar well diffusion method
[4] = tested on: Staphylococcus aureus; assay: Antibacterial activity against Staphylococcus aureus at 100 ug/ml after 24 hrs by agar well diffusion method
[5] = tested on: Bacillus subtilis; assay: Antibacterial activity against Bacillus subtilis at 25 ug/ml after 24 hrs by agar well diffusion method
[6] = tested on: Bacillus subtilis; assay: Antibacterial activity against Bacillus subtilis at 50 ug/ml after 24 hrs by agar well diffusion method
[7] = tested on: Bacillus subtilis; assay: Antibacterial activity against Bacillus subtilis at 75 ug/ml after 24 hrs by agar well diffusion method
[8] = tested on: Bacillus subtilis; assay: Antibacterial activity against Bacillus subtilis at 100 ug/ml after 24 hrs by agar well diffusion method
[9] = tested on: Escherichia coli; assay: Antibacterial activity against Escherichia coli at 25 ug/ml after 24 hrs by agar well diffusion method; settings: for zone of inhibition at 25 µg/mL: read-out: DIZ
[10] = tested on: Escherichia coli; assay: Antibacterial activity against Escherichia coli at 50 ug/ml after 24 hrs by agar well diffusion method; settings: for zone of inhibition at 50 µg/mL: read-out: DIZ
[11] = tested on: Escherichia coli; assay: Antibacterial activity against Escherichia coli at 75 ug/ml after 24 hrs by agar well diffusion method; settings: for zone of inhibition at 75 µg/mL: read-out: DIZ
[12] = tested on: Escherichia coli; assay: Antibacterial activity against Escherichia coli at 100 ug/ml after 24 hrs by agar well diffusion method; settings: for zone of inhibition at 100 µg/mL: read-out: DIZ
[13] = tested on: Klebsiella pneumoniae; assay: Antibacterial activity against Klebsiella pneumoniae at 25 ug/ml after 24 hrs by agar well diffusion method
[14] = tested on: Klebsiella pneumoniae; assay: Antibacterial activity against Klebsiella pneumoniae at 50 ug/ml after 24 hrs by agar well diffusion method
[15] = tested on: Klebsiella pneumoniae; assay: Antibacterial activity against Klebsiella pneumoniae at 75 ug/ml after 24 hrs by agar well diffusion method; settings: for zone of inhibition at 75 µg/mL: read-out: DIZ
[16] = tested on: Klebsiella pneumoniae; assay: Antibacterial activity against Klebsiella pneumoniae at 100 ug/ml after 24 hrs by agar well diffusion method; settings: for zone of inhibition at 100 µg/mL: read-out: DIZ
[17] = tested on: Staphylococcus aureus; assay: Antibacterial activity against methicillin resistant Staphylococcus aureus MRSA090 at 25 ug/ml after 24 hrs by agar well diffusion method
[18] = tested on: Staphylococcus aureus; assay: Antibacterial activity against methicillin resistant Staphylococcus aureus MRSA090 at 50 ug/ml after 24 hrs by agar well diffusion method
[19] = tested on: Staphylococcus aureus; assay: Antibacterial activity against methicillin resistant Staphylococcus aureus MRSA090 at 75 ug/ml after 24 hrs by agar well diffusion method
[20] = tested on: Staphylococcus aureus; assay: Antibacterial activity against methicillin resistant Staphylococcus aureus MRSA090 at 100 ug/ml after 24 hrs by agar well diffusion method
[21] = tested on: Aspergillus niger; assay: Antifungal activity against Aspergillus niger at 25 ug/ml after 48 hrs by agar well diffusion method
[22] = tested on: Aspergillus niger; assay: Antifungal activity against Aspergillus niger at 50 ug/ml after 48 hrs by agar well diffusion method
[23] = tested on: Aspergillus niger; assay: Antifungal activity against Aspergillus niger at 75 ug/ml after 48 hrs by agar well diffusion method
[24] = tested on: Aspergillus niger; assay: Antifungal activity against Aspergillus niger at 100 ug/ml after 48 hrs by agar well diffusion method
[25] = tested on: Fusarium verticillioides; assay: Antifungal activity against Fusarium moniliforme at 25 ug/ml after 48 hrs by agar well diffusion method
[26] = tested on: Fusarium verticillioides; assay: Antifungal activity against Fusarium moniliforme at 50 ug/ml after 48 hrs by agar well diffusion method
[27] = tested on: Fusarium verticillioides; assay: Antifungal activity against Fusarium moniliforme at 75 ug/ml after 48 hrs by agar well diffusion method
[28] = tested on: Fusarium verticillioides; assay: Antifungal activity against Fusarium moniliforme at 100 ug/ml after 48 hrs by agar well diffusion method
[29] = tested on: Fusarium oxysporum; assay: Antifungal activity against Fusarium oxysporum at 25 ug/ml after 48 hrs by agar well diffusion method
[30] = tested on: Fusarium oxysporum; assay: Antifungal activity against Fusarium oxysporum at 50 ug/ml after 48 hrs by agar well diffusion method
[31] = tested on: Fusarium oxysporum; assay: Antifungal activity against Fusarium oxysporum at 75 ug/ml after 48 hrs by agar well diffusion method; settings: for zone of inhibition at 75 µg/mL: read-out: DIZ
[32] = tested on: Fusarium oxysporum; assay: Antifungal activity against Fusarium oxysporum at 100 ug/ml after 48 hrs by agar well diffusion method; settings: for zone of inhibition at 100 µg/mL: read-out: DIZ

Row | SMILES | diameter of the inhibition zone (DIZ) [1] | diameter of the inhibition zone (DIZ) [2] | diameter of the inhibition zone (DIZ) [3] | diameter of the inhibition zone (DIZ) [4] | diameter of the inhibition zone (DIZ) [5] | diameter of the inhibition zone (DIZ) [6] | diameter of the inhibition zone (DIZ) [7] | diameter of the inhibition zone (DIZ) [8] | zone of inhibition at 25 µg/mL [9] [mm] | zone of inhibition at 50 µg/mL [10] [mm] | zone of inhibition at 75 µg/mL [11] [mm] | zone of inhibition at 100 µg/mL [12] [mm] | zone of inhibition at 75 µg/mL [15] [mm] | zone of inhibition at 100 µg/mL [16] [mm] | diameter of the inhibition zone (DIZ) [21] | diameter of the inhibition zone (DIZ) [22] | diameter of the inhibition zone (DIZ) [23] | diameter of the inhibition zone (DIZ) [24] | diameter of the inhibition zone (DIZ) [29] | diameter of the inhibition zone (DIZ) [30] | other results
1 | Cc1cccc2nc(N/N=C/c3ccc[nH]3)sc12 | inactive | inactive | inactive | inactive | inactive | inactive | inactive | inactive | 12 | 17 | 22 | 24 | 19 | 23 | inactive | inactive | inactive | inactive | inactive | inactive | zone of inhibition at 25 µg/mL ([13]; read-out: DIZ): 10 mm; zone of inhibition at 50 µg/mL ([14]; read-out: DIZ): 14 mm; zone of inhibition at 25 µg/mL ([17]; MRSA090, 24 h, read-out: DIZ): 4 mm; zone of inhibition at 50 µg/mL ([18]; MRSA090, 24 h, read-out: DIZ): 8 mm; zone of inhibition at 75 µg/mL ([19]; MRSA090, 24 h, read-out: DIZ): 11 mm; zone of inhibition at 100 µg/mL ([20]; MRSA090, 24 h, read-out: DIZ): 17 mm; zone of inhibition at 25 µg/mL ([25]; read-out: DIZ): 4 mm; zone of inhibition at 50 µg/mL ([26]; read-out: DIZ): 9 mm; zone of inhibition at 75 µg/mL ([27]; read-out: DIZ): 14 mm; zone of inhibition at 100 µg/mL ([28]; read-out: DIZ): 18 mm; zone of inhibition at 75 µg/mL [31]: 10 mm; zone of inhibition at 100 µg/mL [32]: 15 mm
2 | Cc1cccc2nc(N/N=C/CC(C)C)sc12 | inactive | inactive | inactive | inactive | inactive | inactive | inactive | inactive |  |  |  |  |  |  | inactive | inactive | inactive | inactive | inactive | inactive | diameter of the inhibition zone (DIZ) [9]: inactive; diameter of the inhibition zone (DIZ) [10]: inactive; diameter of the inhibition zone (DIZ) [11]: inactive; diameter of the inhibition zone (DIZ) [12]: inactive; diameter of the inhibition zone (DIZ) [13]: inactive; diameter of the inhibition zone (DIZ) [14]: inactive; diameter of the inhibition zone (DIZ) [15]: inactive; diameter of the inhibition zone (DIZ) [16]: inactive; diameter of the inhibition zone (DIZ) [17]: inactive; diameter of the inhibition zone (DIZ) [18]: inactive; diameter of the inhibition zone (DIZ) [19]: inactive; diameter of the inhibition zone (DIZ) [20]: inactive; diameter of the inhibition zone (DIZ) [25]: inactive; diameter of the inhibition zone (DIZ) [26]: inactive; diameter of the inhibition zone (DIZ) [27]: inactive; diameter of the inhibition zone (DIZ) [28]: inactive; diameter of the inhibition zone (DIZ) [31]: inactive; diameter of the inhibition zone (DIZ) [32]: inactive
3 | Cc1cccc2nc(N/N=C/c3ccccc3)sc12 | inactive | inactive | inactive | inactive |  |  |  |  | 9 | 11 | 13 | 15 | 7 | 10 | inactive | inactive | inactive | inactive |  |  | zone of inhibition at 25 µg/mL ([5]; read-out: DIZ): 5 mm; zone of inhibition at 50 µg/mL ([6]; read-out: DIZ): 7 mm; zone of inhibition at 75 µg/mL ([7]; read-out: DIZ): 11 mm; zone of inhibition at 100 µg/mL ([8]; read-out: DIZ): 13 mm; diameter of the inhibition zone (DIZ) [13]: inactive; diameter of the inhibition zone (DIZ) [14]: inactive; diameter of the inhibition zone (DIZ) [17]: inactive; diameter of the inhibition zone (DIZ) [18]: inactive; diameter of the inhibition zone (DIZ) [19]: inactive; diameter of the inhibition zone (DIZ) [20]: inactive; diameter of the inhibition zone (DIZ) [25]: inactive; diameter of the inhibition zone (DIZ) [26]: inactive; diameter of the inhibition zone (DIZ) [27]: inactive; diameter of the inhibition zone (DIZ) [28]: inactive; zone of inhibition at 25 µg/mL ([29]; read-out: DIZ): 4 mm; zone of inhibition at 50 µg/mL ([30]; read-out: DIZ): 8 mm; zone of inhibition at 75 µg/mL [31]: 13 mm; zone of inhibition at 100 µg/mL [32]: 16 mm
